# Test results reported in patent US20240335427A1, “SMALL MOLECULE INHIBITION OF DEUBIQUITINATING ENZYME JOSEPHIN DOMAIN CONTAINING 1 (JOSD1) AS A TARGETED THERAPY FOR LEUKEMIAS WITH MUTANT JANUS KINASE 2 (JAK2)” (DANA-FARBER CANCER INSTITUTE, INC., priority 2021, published 2024).
# Columns and labels:
# [1] = target: USP30 (Homo sapiens (Human), UniProt Q70CQ3); experiment: USP30 biochemical IC50
# [2] = tested on: HEL cells; experiment: HEL cell growth inhibition by fresh or aged drug stocks (stability); format: cell-based, human; settings: stocks stored two to three years at −20° Celsius; 2.5, 5, 10, 20 μM, 24 hours
# Experimental: Fresh or aged stocks of compounds 1 and 2 were tested for the ability to inhibit HEL cell growth at 2.5, 5, 10, and 20 μM of each drug after 24 hours (FIG. 19A-FIG. 19B).
# The CellTiter Glo® assay was performed using HEL cells seeded at 1000 cells/well of a 96-well plate. The “fresh” drug stocks were obtained frozen (stored at −20° Celsius) within days of executing the proliferation experiment for which results are shown. The “aged” drug stocks were obtained from freeze-thawed stocks serially diluted and stored at −20° Celsius in the laboratory. The “aged” stocks were stored between at least two years to three years at −20° Celsius with little to no freeze-thaw cycles prior to execution of the proliferation experiment for which results are shown. “Aged” stocks may be stored for several years (e.g., at least one year, at least two years, at least three years, at least four years or more) at −20° Celsius prior to use.
# [3] = target: T1, JOSD1 (Homo sapiens (Human), UniProt Q15040); experiment: In vitro JOSD1 activity assay (biochemical IC50, purified enzyme)
# Experimental: (§3) In vitro JOSD1 activity assay & Ubiquitin-7-amido-4-methylcoumarin (AMC) assay. In vitro JOSD1 activity assay was carried out with Ubiquitin-AMC assay. […] Recombinant JOSD1 was tested for activity in a Ubiquitin-AMC assay in the presence or absence of inhibitors. […] The reaction was incubated for 6 hours at room temperature prior to the addition of 2 μM Ubiquitin-AMC (Boston Biochem) substrate. The initial rate of the reaction was measured by collecting fluorescence data at one-minute intervals over a 30-minute period using a Clariostar® fluorescence plate reader at excitation and emission wavelengths of 345 and 445 nm, respectively. The calculated initial rate values were plotted against inhibitor concentrations to determine IC50 values.
# (§4) In vitro JOSD1 activity assay. Recombinant full-length JOSD1 was tested for activity in a Ubiquitin-AMC assay in the presence or absence or inhibitors. For this assay, 10 nM JOSD1 was pre-incubated with different concentrations of inhibitors or DMSO as a control in 50 mM Tris 8.0, 0.5 mM EDTA, 10 mM ovalbumin, 5 mM DTT. The reaction was incubated for 6 h at room temperature prior to the addition of 2 mM Ubiquitin-AMC (Boston Biochem) substrate. The initial rate of the reaction was measured by collecting fluorescence data at one-minute intervals over a 30-minute period using a CLARIOstar® fluorescence plate reader at excitation and emission wavelengths of 345 and 445 nm, respectively. The calculated initial rate values were plotted against inhibitor concentrations to determine IC50 values.
# (§5) JOSD1 biochemical inhibition was investigated for the analogs shown using the fluorescent substrate ubiquitin-rhodamine against purified enzyme in a continuous kinetic assay.
# [4] = target: UCHL1 (Homo sapiens (Human), UniProt P09936); experiment: UCHL1 biochemical inhibition (ubiquitin hydrolase activity, purified enzyme)
# [5] = tested on: JAK2-V617F; experiment: JAK2 protein level by western blotting in Ba/F3-EPOR-JAK2-V617F cells; format: cell-based
# Experimental: Immunoblotting and Immunoprecipitation. Protein lysate preparation, immunoblotting, and immunoprecipitation were carried out as previously described (Lamberto, et al., 2017 Cell Chem Biol., 224(12):1490-500 e11). Briefly, 0.7×10^6 cells were treated with compounds 1 and 2 at 0, 5, 10, […], cells were collected, and lysate was prepared in radioimmunoprecipitation assay (RIPA) buffer, JAK family and downstream signaling protein levels were detected by western blotting with the indicated antibodies. For immunoprecipitation, 1 mg protein for each sample was prepared and 1 μg antibody was used, immunoglobulin G (IgG) was added in same amount as nontargeting control.
# (§1) A broader range of compounds 1 and 2, including concentrations lower than 1 μM, were also tested on growth of EPOR-JAK2-V617F-expressing Ba/F3 cells and parental Ba/F3 EpoR+ cells (24 hours treatment on 4000 cells per well) (FIG. 18-FIG. 18B). Cell growth inhibition (FIG. 17A-FIG. 17B, FIG. 18A-FIG. 18B) was tested on Ba/F3-EPOR-JAK2-V617F (-IL-3/WEHI) and parental Ba/F3-EPOR cells (+IL-3/WEHI) plated at 2000 cells per well, at 1, 3 and 10 μM for 24 hours using the Promega CellTiter Glo® assay.
# [6] = tested on: native DUBs (UCHL1, USP30 and JOSD1); experiment: Competitive activity-based protein profiling with quantitative mass spectrometry in HEK-293T lysates; format: binding; settings: block of labeling by DUB activity-based probes
# Experimental: Activity Based Protein Profiling (ABPP) assay. DUB targets were investigated using competitive ABPP with quantitative mass spectrometry. The ability to block labeling of 50 DUBs by ubiquitin-based DUB activity-based probes was quantitatively measured in HEK-293T lysates.
# DUB ABPP of Compound Targets. Activity-based probes biotin-Ub-PA (UbiQ-076) and biotin-Ub-VME (UbiQ-054) were obtained from UbiQ Bio. DUB Activity based protein profiling was performed using conditions modified from those in Schauer, et al., 2020, Scientific Reports, 10:1-15, based on work by Lawson, et al., 2017 Oncotarget, 8:51296-316. HEK 293T cells were lysed (50 mM Tris pH 8.0, 150 mM NaCl, 5 mM MgC2, 0.5 mM EDTA, 0.5% NP-40, 10% glycerol, 1 mM tris(2-carboxyethyl)phosphine (TCEP), protease and phosphatase inhibitors) and the lysate was clarified by centrifugation, then diluted to 10 mg/mL. 200 μL aliquots were incubated at the indicated compound concentrations or DMSO for 5 hours at room temperature, final DMSO concentration 0.5%. Afterwards, the treated lysates were incubated with 1 μM each of Biotin-Ub-PA and Biotin-Ub-VME for 90 minutes at room temperature. […]
# Specifically, quantitative mass spectrometry was utilized to measure the ability of compounds 1 and 2 to block labeling of […] native DUBs by ubiquitin-based DUB activity-based probes in HEK-293T lysates. […]
# [7] = tested on: Ba/F3-EPOR-JAK2-V617F-expressing cells; experiment: Ba/F3 cell proliferation (CellTiter Glo); format: cell-based, murine
# Experimental: Proliferation and Drug Combination Studies. Proliferation and drug combination studies were carried out as previously described (Yang, et al., 2020, British Journal of Cancer, 122:1175-84).
# As toxicities can result from small molecule targeting of both oncogenic mutated JAK2 as well as its non-mutated counterpart, a chemical genetics screen was designed and performed of a DUB-focused small molecule inhibitor library with the goal of leveraging crosstalk between phosphorylation and ubiquitination to identify DUB inhibitors able to selectively degrade mutant JAK2 while sparing wt JAK2. Of relevance, activated FLT3 can be selectively degraded over the wt enzyme by inhibition of the DUB, USP10, (Wernig, et al., 2008, Blood, 111(7):3751-9) and similar to FLT3, JAK2 is ubiquitinated in an activation-dependent manner. In brief, the library of known and novel DUB inhibitors was evaluated for ability to suppress growth of Ba/F3-EPOR-JAK2-V617F-expressing cells selectively over Ba/F3-EPOR cells growing in the presence of interleukin-3.
# as §1
# [8] = tested on: normal bone marrow cells; experiment: Normal bone marrow colony assay; format: cell-based, human
# Experimental: Normal human bone marrow was also analyzed in a colony assay: 24-well plates seeded with 200 cells/well in MethoCult™ H4434 Classic (methylcellulose-based medium with recombinant cytokines for human cells) ([…] Technologies™ INC., Vancouver, British Columbia, Canada). The plates contained targeted JOSD1 inhibitors at the indicated concentrations. Plates were incubated at 37° C. in 5% CO2 for >1 week, and then myeloid and erythroid colonies (early progenitors with erythroid and myeloid components: colony-forming unit for granulocytes and macrophages (CFU-GM), CFU-erythroid (E), BFU-E, and CFU-granulocyte, erythroid, macrophage, megakaryocyte (GEMM) were counted on an inverted microscope.
# [9] = target: JAK2-V617F (Homo sapiens (Human), UniProt O60674, V617F); experiment: JAK2-V617F protein loss in human AML cell lines by western blotting; format: cell-based; settings: HEL cells, co-treatment with cycloheximide
# Experimental: (§2) Immunoblotting and Immunoprecipitation. Protein lysate preparation, immunoblotting, and immunoprecipitation were carried out as previously described (Lamberto, et al., 2017 Cell Chem Biol., 224(12):1490-500 e11). Briefly, 0.7×10^6 cells were treated with compounds 1 and 2 at 0, 5, 10, and 20 μM for 16 or 24 hours, cells were collected, and lysate was prepared in radioimmunoprecipitation assay (RIPA) buffer, JAK family and downstream signaling protein levels were detected by western blotting with the indicated antibodies. For immunoprecipitation, 1 mg protein for each sample was prepared and 1 μg antibody was used, immunoglobulin G (IgG) was added in same amount as nontargeting control.
# [10] = target: wt JAK2 (Mus musculus (Mouse), UniProt Q62120); experiment: JAK2 protein level by western blotting in Ba/F3-EPOR-JAK2 wt cells; format: cell-based
# Experimental: as §2
# [11] = target: T1, JOSD1; experiment: biochemical
# Experimental: as §3, §4, §5
# UCHL1, sequence (P09936 whole entry, species assumed): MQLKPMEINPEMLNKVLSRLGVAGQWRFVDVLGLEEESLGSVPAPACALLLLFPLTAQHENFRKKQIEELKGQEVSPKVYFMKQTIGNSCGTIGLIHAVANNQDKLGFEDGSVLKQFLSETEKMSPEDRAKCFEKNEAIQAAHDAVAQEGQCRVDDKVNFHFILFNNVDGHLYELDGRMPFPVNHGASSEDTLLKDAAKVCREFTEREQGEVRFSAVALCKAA
# USP30, sequence (Q70CQ3 whole entry, species assumed): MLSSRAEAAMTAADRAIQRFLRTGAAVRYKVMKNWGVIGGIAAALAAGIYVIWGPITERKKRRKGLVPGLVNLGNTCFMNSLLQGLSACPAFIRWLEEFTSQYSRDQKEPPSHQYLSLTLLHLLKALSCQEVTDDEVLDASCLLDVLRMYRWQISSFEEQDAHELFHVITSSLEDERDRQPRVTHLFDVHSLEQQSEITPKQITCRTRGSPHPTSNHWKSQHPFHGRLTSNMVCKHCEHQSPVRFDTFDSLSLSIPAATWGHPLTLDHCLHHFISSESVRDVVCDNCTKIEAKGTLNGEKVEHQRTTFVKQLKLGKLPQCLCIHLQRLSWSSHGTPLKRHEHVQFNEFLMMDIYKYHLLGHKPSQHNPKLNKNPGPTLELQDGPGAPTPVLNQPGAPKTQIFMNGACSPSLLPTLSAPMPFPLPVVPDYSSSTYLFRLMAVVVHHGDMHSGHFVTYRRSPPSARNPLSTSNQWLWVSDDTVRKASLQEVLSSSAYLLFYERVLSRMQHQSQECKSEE
USP30 biochemical IC50 (range in words) [1],JOSD1 IC50 (range in words) [3],UCHL1 biochemical IC50 (range in words) [4],normal bone marrow colony formation ([8]; 5 μM or higher),normal bone marrow colony formation ([8]; concentrations up to 2.5 μM),JAK2-V617F protein half-life [9],JAK2 levels in wt cells [10],IC50 [11] [nM],Structure (SMILES),stability: growth inhibition by aged stocks versus fresh stocks [2],"JAK2 degradation, independent western blotting ([5]; 18 hours, 10 μM compound 1 or 5 μM compound 2)",JAK2-V617F protein level ([5]; Ba/F3-EPOR-JAK2-V617F-expressing cells),"target engagement of UCHL1, USP30 and JOSD1 [6]",killing of Ba/F3-EPOR-JAK2-V617F cells compared to wt JAK2-expressing parental Ba/F3 cells [7],sensitivity compared to Ba/F3 cells overexpressing other oncogenes [7],"cell growth inhibition ([7]; 1, 3 and 10 μM, 24 hours, independent experiments)"
several hundred,several hundred,several hundred,significantly impaired,colonies were able to form,shorten JAK2-V617F protein half-life,little to no impact on JAK2 levels,,"Cc1noc(C)c1-c1ccc2nc(NC(=O)[C@H]3CCN(C#N)C3)sc2c1 [Compound 1, (S)-1-cyano-N-(6-(3,5-dimethylisoxazol-4-yl)benzo[d]thiazol-2-yl)pyrrolidine-3-carboxamide]",comparable cell growth inhibition,degradation of JAK2,decreases in JAK2-V617F protein,dose-dependent target engagement,selective killing,among the highest sensitivity,inhibit growth
,,,,,,,> 100,CCS(=O)(=O)N1CCN(c2nc3cccc(-c4c(C)noc4C)c3s2)C(=O)C1 [Compound 66],,,,,,,
